Data reported in patent US20250382298A1, “NITROGEN-CONTAINING COMPOUND AND USE THEREOF” (SUZHOU GENHOUSE BIO CO., LTD., priority 2022, published 2025).
pEC50, pIC50: −log10 of the molar value. Like-named read-outs stand apart in the source and are kept apart here.

Tests used:
OVCAR3 cells [1] = assay: Detection of cell proliferation activity by CCK8 method (OVCAR3); format: cell-based; conditions: Homo sapiens, OVCAR-3, CCK8, 96 h
Excerpt: (§1) This assay can be used to examine the potency of compounds in inhibiting the proliferation of tumor cells (OVCAR3, HT-29, BT-549, HCT-116). A lower IC50 value indicates high potency of the compound as a KIF18A inhibitor in the following assay setup,
(§2) McCoy's 5A medium purchased from Sangon Biotech; CCK8 kit purchased from Beyotime; OVCAR3, HT-29, HCT-116, and BT-549 cells purchased from Shanghai Fuheng Biotechnology Co., Ltd.; multimode microplate reader (Thermo).
(§3) Cells at the logarithmic growth phase were taken, digested with a cell lysis buffer (trypsin), centrifuged, counted, and seeded into a 96-well plate at an appropriate cell density (BT549: 1500 cells/well in 1640 medium. HT-29 and HCT-116: 2000 cells/well in McCoy's 5A medium), with 180 μL per well, for a total of 60 wells. The surrounding wells were filled with an equal amount of PBS to prevent water evaporation from the edge wells. The next day after cell plating, the test compounds at different concentration gradients (with an initial final concentration of 10 μM, diluted in a 1:5 gradient to obtain 9 concentration gradients) were added to the wells. Three replicate wells were set up for each concentration point, and a corresponding DMSO negative control group was also set up. Detection: After 96 h of drug treatment, the test cell culture plate was removed from the incubator. All the liquid in the 96-well plate was aspirated, and 100 μL of medium containing 10% CCK8 solution was added to each well. The plate was then incubated at 37° C. for 2 h (the OD450 of the DMSO group reached 1.5 or more), and the absorbance at 450 nm was measured using a microplate reader
(§4) After the background value was subtracted from the measurement for each well, the inhibition rate was calculated. Inhibition Rate (%)=(1−Sample/Vehicle)×100. Sample is the luminescence value of the drug treatment group, and Vehicle is the luminescence value of the DMSO control group. A sigmoidal dose-survival rate curve was plotted using a non-linear regression model in the GraphPad Prism 7.0 software, and the IC50 values were calculated.

HCT-116 cells [2] = assay: Detection of cell proliferation activity by CCK8 method (HCT-116); format: cell-based; conditions: Homo sapiens, CCK8, 96 h
Excerpt: as §1, §2, §3, §4

BT-549 cells = assay: Detection of cell proliferation activity by CCK8 method (BT-549); format: cell-based; conditions: Homo sapiens, CCK8, 96 h
Excerpt: as §1, §2, §3, §4

[3] = Pharmacokinetic test in mice; format: in vivo; conditions: BALB/c mice; for AUC / Cmax / half-life: mouse, plasma; for half-life: read-out: t½ (converted)
Protocol: In this example, the pharmacokinetic behavior of the compounds after intravenous injection (IV) and intragastric (PO) administration in BALB/c mice was tested.
On the day of administration, mice were weighed for actual body weight and the administration volume was calculated. Each compound was tested in two groups with 9 mice in each group; one group was subjected to administration by single intravenous injection, and the other group of mice was subjected to single intragastric administration. Whole blood samples were collected via the orbit at prescribed time points (0.25 h, 0.5 h, 1 h, 2 h, 4 h, 8 h, and 24 h after administration). After blood sample collection, the samples were immediately transferred to labeled commercial sample tubes containing K2-EDTA (0.85-1.15 mg), followed by centrifugation (3200×g, 4° C., 10 min) and plasma collection. The plasma was transferred to a pre-cooled centrifuge tube, frozen in dry ice, and then stored in an ultra-low temperature freezer at −60° C. or lower until the LC-MS/MS analysis.
Plasma concentrations were determined by the LC-MS/MS method. Plasma drug concentration data for the compounds were processed using a non-compartmental model in the WinNonlin Version 6.3 (Pharsight, Mountain View, CA) pharmacokinetic software. The relevant pharmacokinetic parameters were calculated by a linear-log trapezoidal method.

HCT-116 cells [4] = assay: Mitotic index analysis, pH3 expression in HCT-116 cells; format: cell-based; conditions: Homo sapiens, 24 h treatment
Protocol: (§5) HCT-116 and HT-29 cells at the logarithmic growth phase were taken, digested with a cell lysis buffer (trypsin), centrifuged, counted, and seeded into a 96-well plate at an appropriate cell density (20000 cells/well), with 100 μL per well. The surrounding wells were filled with an appropriate amount of PBS to prevent water evaporation. The next day, the cells were treated with the compounds at different concentrations (with a starting concentration of 10 μM, 3-fold diluted to obtain 9 concentration gradients). After 24 h, the medium was aspirated, and the cells were washed twice with 100 μL of PBS. The cells were then fixed with 4% paraformaldehyde and incubated at room temperature for 15 min. The fixative solution was discarded, and the cells were washed with PBS. Then, 150 μL of specialized blocking solution (containing 1% Triton-100) was added to each well for blocking at room temperature for 2 h, and the plate was washed with PBS to remove excess blocking solution. Anti-phistone H3 (pH3) was diluted at a ratio of 1:1000 with a blocking solution containing 0.033% Triton-100, and a blank control group was set up. Then, incubation was performed at 4° C. overnight. The next day, the plate was washed twice with 1×PBST. Anti-rabbit-IgG (H+L) (CST) and DRAQ5 (Thermofisher) were each diluted at an appropriate ratio with a blocking solution containing 0.033% Triton-100 (secondary antibody: 1:2000; DRAQ5: 1:10000). Then, incubation was performed at room temperature for 2 h. The plate was washed twice with 1×PBST and once with PBS. Fluorescence signals at 700 nm and 800 nm were detected using a Li—COR Odyssey two-color near-infrared laser imager. Calculation was performed as follows: pH3 expression (%)=(Cmpd dose/DMSO control)×100. Cmpd dose is the value of the drug treatment group, and DMSO control is the value of the DMSO control group. The EC50 values were determined by fitting using the GraphPad Prism 7.0 software.

HT-29 cells [5] = assay: Detection of cell proliferation activity by CCK8 method (HT-29); format: cell-based, human; conditions: Homo sapiens, CCK8, 96 h
Excerpt: as §1, §2, §3, §4

HT-29 cells [6] = assay: Mitotic index analysis, pH3 expression in HT-29 cells; format: cell-based, human; conditions: Homo sapiens, 24 h treatment
Protocol: as §5

OVCAR3 cells [7] = assay: Detection of OVCAR3 cell proliferation activity by CTG method; format: cell-based; conditions: Homo sapiens, OVCAR-3, 168 h, CellTiter-Glo, 7 days
Excerpt: as §1
1640 medium; fetal bovine serum; penicillin/streptomycin antibiotics purchased from Wisent; CellTiter-Glo (chemiluminescence detection reagent for cell viability) reagent purchased from Promega; OVCAR3 cell line purchased from Nanjing Cobioer Biosciences Co., Ltd.; Nivo multimode microplate reader (PerkinElmer),
OVCAR3 cells were seeded into a white 96-well plate, with 80 μL of cell suspension containing 2000 OVCAR3 cells added to each well. The cell plate was incubated in a CO2 incubator overnight.
A test compound was 5-fold diluted to the 8th concentration (i.e., from 2 mM to […]) using a multichannel pipette, with duplicate wells set up. To an intermediate plate was added 78 μL of medium, and the serially diluted compound was transferred to the corresponding wells of the intermediate plate at 2 μL/well. The mixture was mixed well and then transferred to the cell plate at 20 μL/well. The concentration of the compound transferred to the cell plate ranged from 10 μM to 0.026 nM. The cell plate was incubated in a CO2 incubator for 7 days. Another cell plate was prepared and read for signal values on the day of compound addition, and these values were used as the maximum values (the Max value in the equation below) in data analysis. To this cell plate was added the chemiluminescence detection reagent for cell viability at 25 μL/well, and the luminescence signals were stabilized by incubation at room temperature for 10 min. Readings were taken using the multimode microplate reader.
To the cell plate was added the chemiluminescence detection reagent for cell viability at 25 μL/well, and the luminescence signals were stabilized by incubation at room temperature for 10 mm. Readings were taken using the multimode microplate reader, […]

SMILES | pIC50 (OVCAR3 cells [1]) | pIC50 (HCT-116 cells [2]) | pIC50 (BT-549 cells) | F ([3]; PO @30mpk) | AUC ([3]; 30 mg/kg, PO @30mpk) | Cmax ([3]; 30 mg/kg, PO @30mpk) | half-life ([3]; 30 mg/kg, PO @30mpk) | pEC50 (HCT-116 cells [4]) | pIC50 (HT-29 cells [5]) | pEC50 (HT-29 cells [6]) | pIC50 (OVCAR3 cells [7]) | F ([3]; PO @5mpk) | AUC ([3]; 5 mg/kg, PO @5mpk) | Cmax ([3]; 5 mg/kg, PO @5mpk) | half-life ([3]; 5 mg/kg, PO @5mpk)
Cn1ncc2cc(NC(=O)c3ccc(NS(=O)(=O)CCO)cc3N3CC4CCC(C4)C3)nc(N3CCC(F)(F)CC3)c21 [Compound 55] | 8.17 | < 5.00 | 7.26 | 109% | 380 µM·h | 25.8 µM | 7.8 h | < 5.00 | 7.90 | 8.34 |  |  |  |  | 
CS(=O)(=O)Nc1ccc(C(=O)Nc2cn3ncnc3c(N3CCC(F)(F)CC3)n2)c(N2CC3CCC(C3)C2)c1 [Compound 53] | 7.48 | < 5.00 | 6.77 | 16% | 78.3 µM·h | 4.56 µM | 13 h | < 5.00 | 7.35 | 7.57 |  |  |  |  | 
Cc1cc(NC(=O)c2ccc(NS(=O)(=O)CCO)cc2N2CC3CC(C3)C2)nc(N2CCC(F)(F)CC2)n1 [Compound 4] |  |  |  |  |  |  |  |  |  |  | 6.73 |  |  |  | 
CS(=O)(=O)Nc1ccc(C(=O)Nc2cc3nccnc3c(N3CCC(F)(F)CC3)n2)c(N2CC3CCC(C3)C2)c1 [Compound 72] | 7.18 | < 5.00 | 6.48 |  |  |  |  | < 5.00 | 6.85 | 7.14 |  | 175% | 66.3 µM·h | 5.34 µM | 6 h
O=C(Nc1cn2ccnc2c(N2CC3CCC(C3)C2)n1)c1ccc(NS(=O)(=O)CCO)cc1N1CCC2(CC1)CC2 [Compound 30] | 7.52 | < 5.00 | 6.98 |  |  |  |  | < 5.00 | 7.13 | 7.32 | 7.19 |  |  |  | 
Cc1cc2nc(NC(=O)c3ccc(NS(=O)(=O)CCO)cc3N3CCC4(CC3)CC4)nc(N3CCC(F)(F)CC3)c2s1 [Compound 7] |  |  |  |  |  |  |  |  |  |  | 5.70 |  |  |  | 
O=C(Nc1cn2c(F)cnc2c(N2CCC(F)(F)CC2)n1)c1ccc(NS(=O)(=O)CCO)cc1N1CC2CCC(C2)C1 [Compound 51] | 7.58 | < 5.00 | 7.26 | 67% | 272 µM·h | 14.2 µM | 62.3 h | < 5.00 | 7.45 | 7.86 |  |  |  |  | 
O=C(Nc1csc(C2CCC(F)(F)CC2)n1)c1ccc(NS(=O)(=O)CCO)cc1N1CCC2(CC1)CC2 [Compound 1] |  |  |  |  |  |  |  |  |  |  | 6.78 |  |  |  | 
O=C(Nc1nc(N2CCC(F)(F)CC2)nc2ccccc12)c1ccc(NS(=O)(=O)CCO)cc1N1CCC2(CC1)CC2 [Compound 2] |  |  |  |  |  |  |  |  |  |  | 5.28 |  |  |  | 
O=S(=O)(CCO)Nc1cc(N2CCC3(CC2)CC3)c2c(Nc3cn4ccnc4c(N4CCC(F)(F)CC4)n3)ncnc2c1 [Compound 43] | 7.63 | < 5.00 | 7.19 |  |  |  |  | < 5.00 | 7.02 | 7.52 |  |  |  |  | 
O=C(Nc1cc2ccccc2c(N2CCC(F)(F)CC2)n1)c1ccc(NS(=O)(=O)CCO)cc1N1CC2CCC(C2)C1 [Compound 9] |  |  |  |  |  |  |  |  |  |  | 6.91 |  |  |  | 
CS(=O)(=O)Nc1ccc(C(=O)Nc2cn3c(F)cnc3c(N3CCC(F)(F)CC3)n2)c(N2CCC3(CC2)CC3)c1 [Compound 46] | 7.46 | < 5.00 | 7.12 |  |  |  |  | < 5.00 | 7.25 | 7.28 |  |  |  |  | 
O=C(Nc1cc2cn[nH]c2c(N2CCC(F)(F)CC2)n1)c1ccc(NS(=O)(=O)CCO)cc1N1CC2CCC(C2)C1 [Compound 71] | 8.30 | < 5.00 | 7.40 |  |  |  |  | < 5.00 | 7.76 | 8.11 |  |  |  |  | 
O=C(Nc1cc2nccn2c(N2CCC(F)(F)CC2)n1)c1ccc(NS(=O)(=O)CCO)cc1N1CCC2(CC1)CC2 [Compound 16] |  | < 5.00 | 6.72 |  |  |  |  | < 5.00 | 6.47 | 7.03 | 7.28 |  |  |  | 
